# Test results published in patent US8652804B2, “Transcription factor-based biosensors for detecting dicarboxylic acids” (priority 2011, dated 2014).
# How the values were obtained:
# [1] = tested on: E. coli DcuS-DcuR two-component system; conditions: plasmids S5 (PDcuB#21) or S6 (PDcuB#22), 25 μg/ml tetracycline
# Description: (§1) E. coli strain K12 was transformed with plasmids S4, S5, or S6 and individual colonies isolated from LB agar plates (Cb^50). Colonies were grown in 25 ml LB broth (Cb^50) until reaching an optical density at 600 nm (OD600) of approximately 0.50, at which point cell stocks were prepared and stored at −80° C.; cell stocks comprised 0.5 ml cell culture and 0.5 ml of 50% v/v glycerol in water.
# (§2) Biosensor experiments were performed with butanedioic acid. An aliquot of biosensor cell stock was thawed and used to inoculate 50 ml of LB medium (Cb^50) in a 250 ml, baffled Erlenmeyer flask. […] Plates were grown at 30° C. on an orbital titer plate shaker (Lab Line Instruments). Following 12 hours incubation, 200 μl samples were taken for OD600 measurement (Tecan Ultra).
# [2] = biological target: PcaR transcription factor (Pseudomonas putida, UniProt Q52154); conditions: for biosensor response (OD600 increase / tetracycline resistance) in words: plasmids S3/S2, 25 μg/ml tetracycline, 12 hours growth; for linear response range: plasmids S3/S2, E. coli K12, tetracycline medium, 12 hours, exogenously added dicarboxylic acid; for dynamic range (maximum difference in OD600 between fully induced samples and samples without dicarboxylic acid), ranking in words: plasmids S3/S2, compared among the four dicarboxylic acids
# Description: The X-axis is the concentration of exogenous dicarboxylic acid supplemented to the growth medium; the Y-axis is the cell culture density (OD600) after 12 hours growth in medium supplemented with 25 μg/ml tetracycline. E. coli strain “PcaR (+)” comprises plasmids S3/S2 and produces the tetracycline resistance protein upon exogenous addition of dicarboxylic acids. E. coli strain “PcaR (−)” comprises plasmids S1/S2 and produces a negative control protein, PcaI, upon exogenous addition of the indicated dicarboxylic acids.
# Three plasmids were used to characterize biosensor response to exogenously added butanedioic acid, pentanedioic acid, hexanedioic acid and heptanedioic acid. The constructed plasmids employ the beta-keto hexanedioic acid and hexanedioic responsive transcription factor, PcaR, and the PcaR-responsive promoters, PPcaR (SEQ ID NO: 16) and PPcaIJ (SEQ ID NO:17), from Pseudomonas putida. Plasmid 51 harbors the P. putida gene pcaI under transcriptional control of it native PPcaIJ promoter on an E. coli vector backbone with ampicillin resistance marker and ColE1 origin of replication. Plasmid S3 harbors the tetA tetracycline resistance gene under control of the PcaIJ promoter on an E. coli vector backbone with ampicillin resistance marker and ColE1 origin of replication. Plasmid S2 harbors the pcaR transcription factor gene under control of its native PPcaR promoter on an E. coli vector backbone comprising a chloramphenicol resistance marker and pSC101 origin of replication.
# E. coli strain K12 was co-transformed with either plasmids S1/S2 or S3/S2 and individual colonies isolated from LB agar plates (Cb^50, Cm^50). Colonies were grown in 25 ml LB broth (Cb^50, Cm^50) until reaching an optical density at 600 nm (OD600) of approximately 0.50, at which point cell stocks were prepared and stored at −80° C.; cell stocks were comprised of 0.5 ml cell culture and 0.5 ml of a 50% v/v glycerol solution.
# Biosensor experiments were performed with butanedioic acid, pentanedioic acid, hexanedioic acid, and heptanedioic acid. An aliquot of biosensor cell stock was thawed and used to inoculate 50 ml of LB medium (Cb^50, Cm^50) in a 250 ml, baffled Erlenmeyer flask. Cultures were incubated for 2 hours at 37° C.; subsequently, 0.6 ml biosensor culture was added to 48-well plates prepared with 2.3 ml LB medium (Cb^50, Cm^50) supplemented with tetracycline and dicarboxylic acid at the desired concentration (n=4). Plates were than grown at 30° C. on an orbital titer plate shaker (Lab Line Instruments). Following 12 hours incubation, 200 μl samples were taken for OD600 measurement (Tecan Ultra).
# [3] = tested on: E. coli DcuS-DcuR two-component system; conditions: plasmid S4 (PDctA-tetA), E. coli K12, 25 μg/ml tetracycline, 12 hours, exogenously added acid
# Description: This example describes a dicarboxylic acid-responsive two-component system of the invention comprised of the E. coli DcuS-DcuR proteins expressed in a wild type E. coli K12 host.
# as §1, §2
# Chain of PcaR transcription factor (Q52154 whole entry L6P/V7A/D9E/P10S/V11A/P15S/S20A/A21P/M23L/S96T/G197D/H210N/P212A): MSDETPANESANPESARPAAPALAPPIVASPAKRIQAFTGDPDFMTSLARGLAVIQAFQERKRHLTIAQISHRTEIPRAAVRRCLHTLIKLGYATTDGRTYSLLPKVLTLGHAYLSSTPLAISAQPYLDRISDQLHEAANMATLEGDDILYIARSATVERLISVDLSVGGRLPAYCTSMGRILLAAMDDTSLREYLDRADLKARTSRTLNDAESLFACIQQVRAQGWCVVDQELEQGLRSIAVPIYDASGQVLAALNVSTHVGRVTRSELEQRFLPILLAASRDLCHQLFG
Structure (SMILES),"growth of biosensor cultures versus acid concentration, in words [1]",biosensor response (OD600 increase / tetracycline resistance) in words [2],linear response range [2] [mM],dynamic range of biosensor response [3],"dynamic range (maximum difference in OD600 between fully induced samples and samples without dicarboxylic acid), ranking in words [2]"
O=C(O)CCC(=O)O [butanedioic acid],grew under all butanedioic acid concentrations tested,dicarboxylic acid-dependent increases in tetracycline resistance,1.5 to 4,over 1.2 OD600 units,
O=C(O)CCCCCC(=O)O [heptanedioic acid],,dicarboxylic acid-dependent increases in tetracycline resistance,0.5 to 6,,highest dynamic range
O=C(O)CCCCC(=O)O [hexanedioic acid],,dicarboxylic acid-dependent increases in tetracycline resistance,0.25 to 6,,highest dynamic range
O=C(O)CCCC(=O)O [pentanedioic acid],,dicarboxylic acid-dependent increases in tetracycline resistance,1 to 2.5,,
